According to the supplement of paper PMC5579334:

Tests used:
HS-Sch-2 = test: relative IC50 (inflection point of fitted dose-response curve, CellTiter-Glo viability, 72 h; top asymptote may be below 50% inhibition); higher = less potent
How it was run: (§1)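 MPNST cell lines and primary human Schwann cells were seeded at 750–1000 cells per well into 384-well plates preprinted with each compound at five concentrations in 10-fold steps, then incubated 72 h at 37 °C, 5% CO2. CellTiter-Glo ATP luminescence gave viability, scaled between vehicle and positive-control wells, with duplicates averaged where present. Curves were fitted with a four-parameter logistic model. Percent inhibition refers to the top concentration, while drug sensitivity score and relative IC50, censored at the top concentration, come from these fits.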

YST-1 = test: as above
How it was run: as §1

HS-PSS [1] = test: as above
How it was run: as §1

HS-PSS [2] = test: relative IC50 (inflection point of fitted dose-response curve, CellTox-Green cytotoxicity, 72 h; top asymptote may be below 50%); higher = less potent
How it was run: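 For 72 h at 37 °C, MPNST cell lines and primary human Schwann cells were exposed in 384-well plates to five 10-fold compound dilutions. CellTox-Green, added before seeding at a final 1:1000 dilution, gave fluorescence from DNA released by disrupted cells. Signals were scaled to vehicle and positive-control wells, cultures failing plate quality control were left out, and four-parameter logistic fits were applied. Relative IC50 and drug sensitivity score were derived from the fits, with IC50 censored at the top concentration.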

Structure (SMILES) | relative IC50 (HS-Sch-2) [nM] | relative IC50 (YST-1) [nM] | relative IC50 (HS-PSS [1]) [nM] | relative IC50 (HS-PSS [2]) [nM]
COc1cc(Br)c(Nc2nc(-c3c(C)nc4ncccn34)cs2)c(Br)c1 [PTC-209] | 1410 | 2580 | 1670 | > 10000
COc1cc(OC)c(/C=C/S(=O)(=O)Cc2ccc(OC)c(NCC(=O)O)c2)c(OC)c1 [Rigosertib] | 92.2 | 59.2 | 130 | > 10000
O=C(Nc1nc2ccccc2n1CCN1CCOCC1)c1cccc([N+](=O)[O-])c1 [IRAK1/4 inhibitor] | > 25000 | > 25000 | > 25000 | > 25000
C[C@@H]1CN(CC(=O)Nc2ccc3c(c2)Cc2cccc(-c4cc(=O)cc(N5CCOCC5)o4)c2S3)C[C@H](C)O1 | 4240 | 9260 | 10100 | > 25000
CCCCNc1ncc(C(=O)NCc2ccc(-n3ccnc3)cc2)c(NC2CCC(O)CC2)n1 (centres undefined) [UNC2881] | > 2500 | 345 | 338 | > 2500
O=c1sn(-c2cccc3ccccc23)c(=O)n1Cc1ccccc1 [Tideglusib] | > 3000 | > 3000 | > 3000 | > 3000
NC(=O)N1CCC(CC(=O)N2CCC([C@H]3c4ncc(Br)cc4CCc4cc(Cl)cc(Br)c43)CC2)CC1 [Lonafarnib] | 1660 | 1370 | 2150 | > 10000
CC(C)Nc1cc(-c2c[nH]c(C(=O)N[C@H](CO)c3cccc(Cl)c3)c2)c(Cl)cn1 [Ulixertinib] | 1290 | 1380 | 3530 | > 10000
CCS(=O)(=O)N1CC(CC#N)(n2cc(-c3ncnc4[nH]ccc34)cn2)C1 [Baricitinib] | > 2500 | > 2500 | > 2500 | > 2500
Cc1c(CN2CCN(C(=O)[C@H](C)O)CC2)sc2c(N3CCOCC3)nc(-c3cnc(N)nc3)nc12 [Apitolisib] | 732 | 167 | 715 | > 10000
CC(C)NC(=O)COc1cccc(-c2nc(Nc3ccc4[nH]ncc4c3)c3ccccc3n2)c1 [SLx-2119] | 653 | 193 | 1040 | > 5000
COc1ncc(-c2ccc3nccc(-c4ccnnc4)c3c2)cc1NS(=O)(=O)c1ccc(F)cc1F [Omipalisib] | 98.4 | 6.88 | 35.2 | > 1000
CC(C)[C@H](C(=O)Nc1ccc(C(=O)NO)cc1)c1ccccc1 [AR-42] | 1150 | 270 | 1060 | 1920
O=C(O)c1ccc2c(c1)nc(Nc1cccc(Cl)c1)c1ccncc12 [Silmitasertib] | 3540 | 2360 | 2580 | > 10000
CC(=O)N(O)CCCCCNC(=O)CCC(=O)N(O)CCCCCNC(=O)CCC(=O)N(O)CCCCCN [Deferoxamine] | 1070 | 1970 | 1480 | 3240
CCN(CC)C(=S)SSC(=S)N(CC)CC [Disulfiram] | 600 | 303 | 291 | 6650
CC(C)N(C[C@H]1O[C@@H](n2cnc3c(N)ncnc32)[C@H](O)[C@@H]1O)[C@H]1C[C@@H](CCc2nc3cc(C(C)(C)C)ccc3[nH]2)C1 [Pinometostat] | > 1000 | > 1000 | > 1000 | > 1000
CCn1c(-c2nonc2N)nc2c(C#CC(C)(C)O)ncc(OC[C@H]3CCCNC3)c21 | 1620 | > 10000 | > 10000 | > 10000
Cn1cc(-c2ccc3nnc(Sc4ccc5ncccc5c4)n3n2)cn1 [SGX-523] | > 5000 | > 5000 | > 5000 | > 5000
COc1cc(N2CCN(C)CC2)ccc1Nc1nccc(-c2cn(C)c3cnccc23)n1 [AZ191] | 3350 | 3400 | 2610 | 2460
NC(=S)N/N=C/c1ncccc1N [Triapine] | 1690 | 3880 | 2250 | 3260
CS(=O)(=O)N1CCc2c(-c3cnc(N)nc3)nc(N3CCOCC3)nc21 | 1050 | 256 | 687 | > 10000
Cc1sc2c(c1C)C(c1ccc(Cl)cc1)=N[C@@H](CC(=O)OC(C)(C)C)c1nnc(C)n1-2 [JQ1] | 331 | 280 | 379 | > 10000
Cc1cc(Nc2cc(N3CCN(C)CC3)nc(Sc3ccc(NC(=O)C4CC4)cc3)n2)n[nH]1 [Tozasertib] | 552 | 42.1 | 315 | > 10000
Cc1nn(C)c(COc2ccc(N3CCN(S(=O)(=O)N(C)C)CC3)cc2)c1-c1cccc2c(CCCOc3cccc4ccccc34)c(C(=O)O)n(CCN3CCOCC3)c12 | 15400 | 12700 | 17800 | 14900
CNC(=O)c1ccccc1Nc1nc(Nc2ccc3c(c2OC)CCC[C@H](N2CCN(CCO)CC2)C3)ncc1Cl | 979 | 633 | 155 | 1090
